Measurements reported in the supplement of paper PMC10307832.

What follows are cell lines tested with COc1nc(N)nc2c1ncn2[C@@H]1O[C@H](CO)[C@@H](O)[C@@H]1O [Nelarabine] + CC(=O)c1c(C)c2cnc(Nc3ccc(N4CCNCC4)cn3)nc2n(C2CCCC2)c1=O [Palbociclib] (partner 0.5 µM) (assay: relative viability (nuclei count vs DMSO), 5 days (fraction); higher = more cells survive). Conditions: first compound 0.1 µM.
In short: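 Lung cancer cell lines were pin-tool dosed in 1536-well plates on the day after seeding, with either a lone drug or a fixed anchor-drug dose plus five library-drug doses (not always all listed) in √10 steps. Nuclei were counted on 4× images after 5 days. Relative viability is the ratio of treated-well to vehicle-well nuclei counts, with each value a median of duplicate plates.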
Work on NCI-H23 yielded a relative viability of 0.43.
Cell Line NCI-H322M has a relative viability of 0.475.
In the case of NCI-H358, the relative viability is reported as 0.129.
Work on NCI-H441 yielded a relative viability of 0.202.
NCI-H460 showed a relative viability of 0.144.
NCI-H520 showed a relative viability of 0.236.
NCI-H522 was tested, and the relative viability was 0.957.
Cell Line NCI-H647 has a relative viability of 0.501.
Work on NCI-H650 yielded a relative viability of 0.297.
NCI-H661 gave a relative viability of 0.402.
Cell Line NCI-H727 has a relative viability of 0.663.
Work on NCI-H838 yielded a relative viability of 0.226.
In the case of NCI-H1355, the relative viability is reported as 0.401.
Cell Line NCI-H1395 has a relative viability of 0.69.
NCI-H1437 gave a relative viability of 0.307.
Work on NCI-H1650 yielded a relative viability of 0.337.
NCI-H1651 was tested, and the relative viability was 0.553.
Work on NCI-H1666 yielded a relative viability of 0.677.
Cell Line NCI-H1734 has a relative viability of 0.334.
With NCI-H1755 the relative viability was 0.462.
NCI-H1792 showed a relative viability of 0.904.
For NCI-H1793, the relative viability was 0.316.
For NCI-H1915, the relative viability was 0.533.
For NCI-H1944, the relative viability was 0.343.
NCI-H1975 gave a relative viability of 0.747.
NCI-H1993 was tested, and the relative viability was 0.692.
In the case of NCI-H2009, the relative viability is reported as 0.203.
NCI-H2023 showed a relative viability of 0.348.
NCI-H2085 was tested, and the relative viability was 0.479.
NCI-H2087 was tested, and the relative viability was 0.268.
With NCI-H2126 the relative viability was 0.326.
Work on NCI-H2170 yielded a relative viability of 0.385.
NCI-H2228 was tested, and the relative viability was 0.599.
NCI-H2342 showed a relative viability of 0.529.
In the case of NCI-H2347, the relative viability is reported as 0.42.
Work on NCI-H2405 yielded a relative viability of 0.516.

Same assay, conditions: first compound 0.3162 µM
With 201T the relative viability was 0.389.
Cell Line A-427 has a relative viability of 0.533.
ABC-1 was tested, and the relative viability was 0.625.
In the case of BEN, the relative viability is reported as 0.491.
In the case of CAL-12T, the relative viability is reported as 0.412.
For COR-L23, the relative viability was 0.267.
COR-L 105 was tested, and the relative viability was 0.385.
Cell Line ChaGo-K-1 has a relative viability of 0.989.
EKVX gave a relative viability of 0.348.
Cell Line EPLC-272H has a relative viability of 0.337.
With H3255 the relative viability was 0.315.
For HARA, the relative viability was 0.273.
HCC-15 showed a relative viability of 0.837.
With HCC-44 the relative viability was 0.984.
With HCC-78 the relative viability was 0.484.
In the case of HCC-366, the relative viability is reported as 0.453.
HCC-827 was tested, and the relative viability was 0.378.
With HOP-62 the relative viability was 0.419.
With LC-2-ad the relative viability was 0.544.
In the case of LCLC-97TM1, the relative viability is reported as 0.229.
LCLC-103H gave a relative viability of 0.486.
For LK-2, the relative viability was 0.835.
Work on LOU-NH91 yielded a relative viability of 0.618.
Cell Line LU99A has a relative viability of 0.43.
LXF-289 showed a relative viability of 0.625.
Work on NCI-H23 yielded a relative viability of 0.503.
NCI-H322M was tested, and the relative viability was 0.473.
With NCI-H358 the relative viability was 0.127.
NCI-H441 gave a relative viability of 0.192.
NCI-H460 was tested, and the relative viability was 0.162.
NCI-H520 gave a relative viability of 0.261.
NCI-H522 was tested, and the relative viability was 0.947.
NCI-H647 showed a relative viability of 0.457.
NCI-H650 showed a relative viability of 0.301.
In the case of NCI-H661, the relative viability is reported as 0.403.
In the case of NCI-H727, the relative viability is reported as 0.624.
NCI-H838 was tested, and the relative viability was 0.242.
With NCI-H1355 the relative viability was 0.401.
NCI-H1395 showed a relative viability of 0.566.
In the case of NCI-H1437, the relative viability is reported as 0.338.
For NCI-H1648, the relative viability was 0.292.
In the case of NCI-H1650, the relative viability is reported as 0.32.
NCI-H1651 showed a relative viability of 0.512.
In the case of NCI-H1666, the relative viability is reported as 0.661.
NCI-H1734 showed a relative viability of 0.368.
NCI-H1755 gave a relative viability of 0.463.
Work on NCI-H1792 yielded a relative viability of 0.78.
NCI-H1793 showed a relative viability of 0.398.
NCI-H1915 gave a relative viability of 0.522.
NCI-H1944 was tested, and the relative viability was 0.362.
In the case of NCI-H1975, the relative viability is reported as 0.726.
With NCI-H1993 the relative viability was 0.547.
NCI-H2009 gave a relative viability of 0.161.
NCI-H2023 gave a relative viability of 0.336.
NCI-H2085 was tested, and the relative viability was 0.459.
NCI-H2087 showed a relative viability of 0.198.
With NCI-H2126 the relative viability was 0.353.
Work on NCI-H2170 yielded a relative viability of 0.395.
In the case of NCI-H2228, the relative viability is reported as 0.937.
NCI-H2342 gave a relative viability of 0.521.
Work on NCI-H2347 yielded a relative viability of 0.402.
NCI-H2405 was tested, and the relative viability was 0.529.
In the case of NCI-H3122, the relative viability is reported as 0.201.

Same assay, conditions: first compound 1 µM
Work on 201T yielded a relative viability of 0.351.
Work on A-427 yielded a relative viability of 0.53.
ABC-1 was tested, and the relative viability was 0.692.
With BEN the relative viability was 0.494.
CAL-12T was tested, and the relative viability was 0.515.
Work on COR-L23 yielded a relative viability of 0.282.
COR-L 105 showed a relative viability of 0.421.
In the case of ChaGo-K-1, the relative viability is reported as 0.876.
EKVX showed a relative viability of 0.361.
EPLC-272H was tested, and the relative viability was 0.28.
In the case of H3255, the relative viability is reported as 0.355.
HARA showed a relative viability of 0.287.
In the case of HCC-15, the relative viability is reported as 0.677.
Work on HCC-44 yielded a relative viability of 0.944.
Work on HCC-78 yielded a relative viability of 0.46.
For HCC-366, the relative viability was 0.416.
HCC-827 showed a relative viability of 0.397.
In the case of HOP-62, the relative viability is reported as 0.485.
LC-2-ad showed a relative viability of 0.522.
Work on LCLC-97TM1 yielded a relative viability of 0.265.
Cell Line LCLC-103H has a relative viability of 0.504.
LK-2 showed a relative viability of 0.684.
In the case of LOU-NH91, the relative viability is reported as 0.578.
LU99A showed a relative viability of 0.399.
LXF-289 gave a relative viability of 0.59.
NCI-H23 was tested, and the relative viability was 0.634.
NCI-H322M was tested, and the relative viability was 0.495.
NCI-H358 showed a relative viability of 0.139.
NCI-H441 showed a relative viability of 0.192.
NCI-H460 was tested, and the relative viability was 0.181.
Work on NCI-H520 yielded a relative viability of 0.168.
For NCI-H522, the relative viability was 1.02.
For NCI-H647, the relative viability was 0.458.
Work on NCI-H650 yielded a relative viability of 0.363.
NCI-H661 gave a relative viability of 0.422.
Cell Line NCI-H727 has a relative viability of 0.608.
For NCI-H838, the relative viability was 0.253.
Work on NCI-H1355 yielded a relative viability of 0.447.
NCI-H1395 was tested, and the relative viability was 0.622.
NCI-H1437 was tested, and the relative viability was 0.302.
NCI-H1648 showed a relative viability of 0.215.
Work on NCI-H1650 yielded a relative viability of 0.266.
NCI-H1651 was tested, and the relative viability was 0.522.
Cell Line NCI-H1666 has a relative viability of 0.59.
Cell Line NCI-H1734 has a relative viability of 0.326.
NCI-H1755 was tested, and the relative viability was 0.453.
NCI-H1792 gave a relative viability of 0.922.
NCI-H1793 was tested, and the relative viability was 0.318.
NCI-H1915 showed a relative viability of 0.525.
With NCI-H1944 the relative viability was 0.316.
For NCI-H1975, the relative viability was 0.649.
In the case of NCI-H1993, the relative viability is reported as 0.647.
NCI-H2009 was tested, and the relative viability was 0.192.
For NCI-H2023, the relative viability was 0.302.
NCI-H2085 was tested, and the relative viability was 0.431.
With NCI-H2087 the relative viability was 0.192.
NCI-H2126 was tested, and the relative viability was 0.403.
NCI-H2170 showed a relative viability of 0.405.
For NCI-H2228, the relative viability was 0.792.
For NCI-H2342, the relative viability was 0.554.
NCI-H2347 showed a relative viability of 0.481.
For NCI-H2405, the relative viability was 0.51.
NCI-H3122 gave a relative viability of 0.207.
